This assay deals with CXCR4 (Homo sapiens, UniProt P61073). As to the kind of experiment: HPB-ALL CXCR4 competitive binding assay (12G5 binding assay). On the set-up: HPB-ALL cells were maintained in RPMI-1640 (Gibico) supplemented with 10% FBS (Hyclone); endogenous in cells; host or cells: HPB-ALL cells. The settings on record: HPB-ALL cells; competition with APC-conjugated anti-human CXCR4 clone 12G5 at its EC80; 4° C. for 3 h; FACS. As for the experimental part: HPB-ALL CXCR4 Competitive Binding Assay
CXCR4, sequence (P61073 whole entry): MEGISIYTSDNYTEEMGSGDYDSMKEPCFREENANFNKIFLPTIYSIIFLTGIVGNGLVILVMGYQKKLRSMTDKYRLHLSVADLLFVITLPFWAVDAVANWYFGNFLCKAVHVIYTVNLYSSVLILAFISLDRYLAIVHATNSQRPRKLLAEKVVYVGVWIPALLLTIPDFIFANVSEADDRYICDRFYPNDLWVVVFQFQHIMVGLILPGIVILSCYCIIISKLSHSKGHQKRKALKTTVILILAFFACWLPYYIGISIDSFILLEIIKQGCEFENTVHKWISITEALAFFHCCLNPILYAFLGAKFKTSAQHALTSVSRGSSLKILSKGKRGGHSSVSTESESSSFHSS
HPB-ALL cells were maintained in RPMI-1640 (Gibico) supplemented with 10% FBS (Hyclone). APC-conjugated anti-human CXCR4 was from Sungene. EC80 was first determined for 12G5 binding to CXCR4. Then the compounds for testing were added into 96-well plates serially diluted at a ratio of 1:3. Cells were washed once with ice-cold assay buffer (DPBS+2% HI-FBS) and then re-suspended in the same buffer at a final concentration of 1×10^6/mL. Cell suspension was then added into the wells and with the addition of APC-conjugated anti-human CXCR4 clone 12G5 at its EC80 determined. The mix of cell, compounds and APC-conjugated anti-human CXCR4 were incubated at 4° C. for 3 h before addition of 100 μL of 4% PFA. Cells were then washed once and resuspended in assay buffer and examined by FACS. The percent (%) effect at each concentration of compound was calculated and relative to the amount of calcium produced in the positive and negative control wells contained within each assay plate. The concentrations and % effect values for tested compounds were plotted and the concentration of compound required for 50% effect (IC50) was determined. Tables 2 summarize results of the CXCR4 competitive binding assay for selected compounds disclosed in the present disclosure. FIGS. 1-2 depict the IC50 curves of compounds A42 and A43.
As a reminder, the IC50 is the concentration needed to halve the response being measured. Read a low IC50 as greater potency. Compound `Cc1nc(CN(C)C(C)c2ncccc2C)cc(N2CCN(C)CC2)n1` (stereo not shown) [Compound A53] had an IC50 of 33 nM.

On to `CSc1nc([C@H](C)N(C)[C@H]2CCCc3cccnc32)cc(N2CCN(C)CC2)n1` [Compound A32], for which the IC50 was determined as 22 nM.

In turn, `CSc1nc([C@@H]2CCCN2[C@@H]2CCCc3cccnc32)cc(N2CCN(C)CC2)n1` [Compound C4] came in with a 50% inhibitory concentration (IC50) of 2320 nM.

Compound `Cc1nc([C@H]2CC(F)(F)CN2[C@H]2CCCc3cccnc32)cc(N2CCN(C)CC2)n1` [Compound C19] registered an IC50 of 1710 nM. This IC50 and that of the compound before are within 1.5-fold of each other.

For `Cc1cccc(C(C)N(C)Cc2cc(N3CCN(C)CC3)nc(C)n2)n1` (stereo not shown) [Compound A56], the IC50 was 131 nM.

In the case of `Cc1nc(CN(C)C(C)(C)c2ccccn2)cc(N2CCN(C)CC2)n1` [Compound A62], the IC50 came to 2290 nM.

`CO[C@@H]1C[C@H](c2cc(N3CCN(C)CC3)nc(C)n2)N([C@H]2CCCc3cccnc32)C1` [Compound C21] came in with an IC50 of 82 nM.

For the compound `Cc1nc(CN(C)C2CC3(CC3)Cc3cccnc32)cc(N2CCN(C)CC2)n1` (stereo not shown) [Compound A46], the IC50 was 161 nM.

`Cc1nc(CN2CCC(C)C2c2ccccn2)cc(N2CCN(C)CC2)n1` (stereo not shown) [Compound C29] had an IC50 of 1200 nM.

`CSc1nc(CN2CCCCC2c2ccccn2)cc(N2CCN(C)CC2)n1` (stereo not shown) [Compound C18] gave an IC50 of 429 nM.

In turn, `Cc1nc([C@H]2CCN2[C@H]2CCCc3cccnc32)cc(N2CCN(C)CC2)n1` [Compound C13] showed an IC50 of 62 nM.

The compound `Cc1nc(CN(C)[C@H]2CCCc3cccnc32)cc(NCCN2CCOCC2)n1` [Compound A71] registered an IC50 of 90 nM.

Consider `Cc1nc(CN(C)C(CCCNC(=O)OC(C)(C)C)c2ccccn2)cc(N2CCN(C)CC2)n1` (stereo not shown) [Compound A37], for which the IC50 amounted to 4430 nM.

`CC(C)Nc1nc(CN(C)C2CCCc3cccnc32)cc(N2CCN(C)CC2)n1` (stereo not shown) [Compound A20] returned an IC50 of 210 nM.

As for `Cc1nc(CN(C)C2c3ncccc3CCC23CC3)cc(N2CCN(C)CC2)n1` (stereo not shown) [Compound A41], the IC50 amounted to 97 nM. Against the preceding compound, the IC50 is about 2.2-fold lower.

In the case of `CNc1nc(CN(C)C2CCCc3cccnc32)cc(N2CCN(C)CC2)n1` (stereo not shown) [Compound A18], the IC50 is 43 nM. This IC50 lies about 2.3-fold lower than the previous one.

For `Cc1nc(CN(C)[C@H]2CCCc3cccnc32)cc(N2CCC(N3CCOCC3)CC2)n1` [Compound A72], the IC50 came out at 146 nM.

`CN1CCN(c2cc(CN(C)C3CCCc4cccnc43)nc(N3CCCC3)n2)CC1` (stereo not shown) [Compound A13] came in with an IC50 of 8000 nM.

`Cc1nc(CN(C)[C@H]2CCCc3cccnc32)cc(N2CCN3CCC[C@@H]3C2)n1` [Compound A68]: the IC50 stood at 46 nM.

Turning to `CN(C)CCN(C)c1cc(CN(C)C2CCCc3cccnc32)ncn1` (stereo not shown) [Compound A2], the IC50 turned out to be 228 nM.

In turn, `CCc1nc(CN(C)C2CCCc3cccnc32)cc(N2CCN(C)CC2)n1` (stereo not shown) [Compound A28] came in with an IC50 of 21 nM.

Consider `CSc1nc(CN(C)C2CCCc3cccnc32)cc(N2CCN(C)CC2)n1` (stereo not shown) [Compound A3], for which the IC50 stood at 19 nM.

`Cc1ccc(C(C)N(C)Cc2cc(N3CCN(C)CC3)nc(C)n2)nc1` (stereo not shown) [Compound A55] yielded a half-inhibitory concentration (IC50) of 44 nM.

Compound `Cc1nc(CN2CCCC2c2ccccn2)cc(N2CCN(C)CC2)n1` (stereo not shown) [Compound C12] yielded an IC50 of 165 nM.

Turning to `Cc1nc([C@H]2CCCN2[C@H]2CCCc3cccnc32)cc(N2CCN(C)CC2)n1` [Compound C5], the IC50 turned out to be 20 nM.

The compound `CCN1CCN(c2cc(CN(C)[C@H]3CCCc4cccnc43)nc(C)n2)CC1` [Compound A43] yielded a 50% inhibitory concentration (IC50) of 11 nM.

Take `Cc1nc([C@H]2CCN2[C@@H]2CCCc3cccnc32)cc(N2CCN(C)CC2)n1` [Compound C14]: the IC50 amounted to 8110 nM.

Regarding `CC(C)N1CCN(c2cc(CN(C)C3CCCc4cccnc43)ncn2)CC1` (stereo not shown) [Compound A24], the IC50 was 42 nM.

`CN(Cc1cc(N2CCN(CCC#N)CC2)ncn1)C1CCCc2cccnc21` (stereo not shown) [Compound A8, 3-(4-(6-((methyl(5,6,7,8-tetrahydroquinolin-8-yl)amino)methyl)pyrimidin-4-yl)piperazin-1-yl)propanenitrile] registered an IC50 of 242 nM. This IC50 is about 5.8-fold higher than that of the compound before.

As to `CN(Cc1cc(N2CCN(CC3CC3)CC2)ncn1)C1CCCc2cccnc21` (stereo not shown) [Compound A60], the IC50 came to 464 nM.

On to `CC(c1ccccn1)N(C)Cc1cc(N2CCN(C)CC2)ncn1` (stereo not shown) [Compound A4], for which the concentration for half-maximal inhibition (IC50) was 229 nM.

`CN1CCN(c2cc(CN(C)C3CCCc4cccnc43)nc(-c3ccccc3)n2)CC1` (stereo not shown) [Compound A17] returned an IC50 of 2690 nM.

On to `CN1CCN(c2cc(CN(C)C3CCCc4cccnc43)nc(N3CCOCC3)n2)CC1` (stereo not shown) [Compound A14], for which the IC50 was found to be 2250 nM.

Compound `Cc1nc(CN(C)[C@H](C)c2ccccn2)cc(N2CCN(C)CC2)n1` [Compound A76] had an IC50 of 220 nM.

`Cc1cccc([C@@H]2CCCN2Cc2cc(N3CCN(C)CC3)nc(C)n2)n1` [Compound C28] had an IC50 of 2280 nM.

Consider `CCN1CCN(c2cc(CN(C)C3c4ncccc4CCC34CC4)nc(C)n2)CC1` (stereo not shown) [Compound A45], for which the half-maximal inhibitory concentration (IC50) is 886 nM.

Compound `CSc1nc(CN(C)C2CCCc3cccnc32)c(C)c(N2CCN(C)CC2)n1` (stereo not shown) [Compound A27] showed an IC50 of 7.9 nM.

The compound `CC(C)c1nc(CN(C)C2CCCc3cccnc32)cc(N2CCN(C)CC2)n1` (stereo not shown) [Compound A29] returned an IC50 of 78 nM. This IC50 lies about 9.9-fold higher than the previous one.

For `CN1CCN(c2cc(CN(C)C3CCCc4cccnc43)nc(N)n2)CC1` (stereo not shown) [Compound A16], the IC50 worked out at 17 nM.

With `Cc1nc(CN(C)[C@H]2CCCc3cccnc32)cc(NCCCN2CCOCC2)n1` [Compound A70], the IC50 turned out to be 54 nM.

In turn, `COc1nc(CN(C)C2CCCc3cccnc32)cc(N2CCN(C)CC2)n1` (stereo not shown) [Compound A10] had an IC50 of 23 nM.

For the compound `Cc1nc([C@@H]2CCCCN2[C@@H]2CCCc3cccnc32)cc(N2CCN(C)CC2)n1` [Compound C8], the IC50 was found to be 6960 nM.

As to `CN1CCN(c2cc(CN(C)C3CCCc4cccnc43)nc(C3CC3)n2)CC1` (stereo not shown) [Compound A11], the half-maximal inhibitory concentration (IC50) amounted to 26 nM.

As to `Cc1nc(CN(C)C(CCCN)c2ccccn2)cc(N2CCN(C)CC2)n1` (stereo not shown) [Compound A38], the IC50 was found to be 6940 nM.

`CSc1nc([C@H]2CCCN2[C@H]2CCCc3cccnc32)cc(N2CCN(C)CC2)n1` [Compound C1]: the IC50 came out at 93 nM. This IC50 lies about 75-fold lower than the previous one.

On to `CCN(Cc1cc(N2CCN(C)CC2)nc(C)n1)[C@H]1CCCc2cccnc21` [Compound A58], for which the IC50 was 19 nM. Compared with the last compound, the IC50 is about 4.9-fold lower.

`CSc1nc([C@H](C)N(C)[C@@H]2CCCc3cccnc32)cc(N2CCN(C)CC2)n1` [Compound A33] displayed an IC50 of 268 nM.

The compound `CCNc1nc(CN(C)C2CCCc3cccnc32)cc(N2CCN(C)CC2)n1` (stereo not shown) [Compound A19] yielded an IC50 of 67 nM.

`Cc1nc(CN(C)[C@H]2CCCc3cccnc32)cc(N2CCN(C)[C@@H](C)C2)n1` [Compound A66] returned an IC50 of 20 nM.

On to `CSc1nc(CN(C)C2c3ncccc3CCC23CC3)cc(N2CCN(C)CC2)n1` (stereo not shown) [Compound A40], for which the IC50 was 110 nM.

Compound `Cc1nc(CN(C)[C@H]2CCCc3cccnc32)cc(N2CCC(N3CCN(C)CC3)CC2)n1` [Compound A74] registered an IC50 of 100 nM.

In the case of `CN(Cc1cc(NCCN2CCOCC2)ncn1)C1CCCc2cccnc21` (stereo not shown) [Compound A26], the IC50 was 41 nM. This IC50 lies about 2.4-fold lower than the previous one.

In turn, `CN(C)C1CCN(c2cc(CN(C)C3CCCc4cccnc43)ncn2)C1` (stereo not shown) [Compound A39] had an IC50 of 94 nM.

In turn, `COCCN1CCN(c2cc(CN(C)C3CCCc4cccnc43)ncn2)CC1` (stereo not shown) [Compound A6] came in with an IC50 of 1140 nM. This IC50 lies about 12-fold higher than the previous one.

Consider `Cc1nc([C@H]2CCCCN2[C@H]2CCCc3cccnc32)cc(N2CCN(C)CC2)n1` [Compound C6], for which the IC50 amounted to 3240 nM.

`CN(Cc1cc(N2CCNCC2)ncn1)C1CCCc2cccnc21` (stereo not shown) [Compound A7, N-methyl-N-((6-(piperazin-1-yl)pyrimidin-4-yl)methyl)-5,6,7,8-tetrahydroquinolin-8-amine] had an IC50 of 393 nM.

With `Cc1nc(CN(C)[C@H]2CCCc3cccnc32)cc(N2CCN(C3CC3)CC2)n1` [Compound A47], the IC50 was 58 nM. Compared with the last compound, the IC50 is about 6.8-fold lower.

In turn, `Cc1nc(CN(C)C(C)c2ccccn2)cc(N2CCN(C)CC2)n1` (stereo not shown) [Compound A52] yielded an IC50 of 27 nM.

In the case of `Cc1nc(CN(C)C2CCCc3cccnc32)c(F)c(N2CCN(C)CC2)n1` (stereo not shown) [Compound A51], the IC50 was determined as 16 nM. This IC50 lies about 1.7-fold lower than the previous one.

The compound `Cc1nc(CN(C)[C@H]2CCCc3cccnc32)cc(N2CCN(C)CC2CO)n1` (stereo partly shown) [Compound A73] came in with an IC50 of 32 nM.

Compound `Cc1nc(CN(C)[C@H]2CCCc3cccnc32)cc(N2CCN(C)C[C@@H]2C)n1` [Compound A64] displayed an IC50 of 21 nM. Compared with the last compound, the IC50 is about 1.5-fold lower.

In turn, `Cc1nc(CN(C)C2CCCc3cccnc32)c(C#N)c(N2CCN(C)CC2)n1` (stereo not shown) [Compound A77] had an IC50 of 9 nM.

Turning to `Cc1ccc([C@@H]2CCCN2Cc2cc(N3CCN(C)CC3)nc(C)n2)nc1` [Compound C27], the IC50 worked out at 279 nM.

In turn, `Cc1nc(CN(C)[C@H]2CCCc3cccnc32)cc(N2CCN(C)C[C@H]2C)n1` [Compound A63, (S)-N-((6-((R)-2,4-dimethylpiperazin-1-yl)-2-methylpyrimidin-4-yl)methyl)-N-methyl-5,6,7,8-tetrahydroquinolin-8-amine] gave an IC50 of 29 nM. This IC50 lies about 9.6-fold lower than the previous one.
